Measurements taken from patent US6407064B2, “Aminoalcohol derivative and medicament comprising the same” (Seikagaku Corporation, priority 1999, dated 2002).

Columns and labels:
[1] = tested on: cultured neurocytes of rat fetal cerebral cortex; test: Activity of accelerating synapse formation (intracellular calcium ion level, fura-2); type: cell-based; details: relative value, L-PDMP regarded as 100; compound 20 μM; assay on 10th day of culture
Description: The activity of accelerating synapse formation was determined by measuring change of an intracellular calcium ion level resulted from the synchronized spontaneous ignition of neurocytes which is considered to show synapse activities by means of an intracellular calcium ion multipoint observation system using a calcium ion fluorescence indicator, fura-2.
Concretely, rat fetuses at the 18th day of pregnancy were taken out from Wistar rats (available from Japan SLC), and cerebral cortices of the fetuses were taken out and cut into small pieces. After having been treated with papain (manufactured by Worthington Biochemical) at 37° C. for 30 minutes, the pieces were suspended into a Dulbecco modified Eagle's medium containing 5% bovine neonatal serum and 5% equine serum and the cortices were dissociated into single cells with Cell Striner (70 μm, Falcon). Then, the cells were inoculated into a flexiperm plate coated with 0.5% polyethyleneimine (1.0×10^6 cells/500 μl/well), and was cultured in 7% CO2 incubator at 37° C. The medium was exchanged on 2nd, 5th, and 8th days after the culture had been started. The activity of the compound of the present invention was measured using the primary culture. The compound was added at the time when the medium was exchanged and the concentration of the compound was maintained to be 20 μM. Assay was carried out on 10th day after the culture had been started.
(2) Measurement of Activity of Accelerating Synapse Formation
Concretely, after the medium of each well where cells were cultured was substituted with basic salt solution (BSS), 3 μl of a DMSO solution (1 mg/ml) of a calcium ion fluorescence indicator fura-2 was added, and the whole was kept at 37° C. for 1 hour.

[2] = tested on: ganglioside GM3, mouse B16 melanoma cells; test: Synthesized amount of ganglioside GM3 (HPTLC densitometry); type: cell-based; details: relative value, control regarded as 100, test compound 25 μM, 24 hours
Description: A liquid where the cells of mouse B16 melanoma were suspended was prepared with Dulbecco modified Eagle's medium containing 10% bovine fetal serum, inoculated into a culture flask (175 cm^2) in an amount of 0.8×10^7 cells/20 ml, and cultured in 5% CO2 incubator at 37° C. The treatment with a test compound (25 μM) was started through the exchange of three fourths of the medium 24 hours after the culture was started. Twenty-four hours after the treatment with the test compound was started, the culture mixture was treated with PBS containing 0.02% EDTA and PBS containing 0.25% trypsin successively to recover the cells.
Then, a mixed solvent of chloroform:methanol=2:1 (4 ml) was added to the cell pellet and, after the subjection to an ultrasonication for 30 minutes, the cell pellet solution was allowed to stand at room temperature for a night and the supernatant was recovered. Furthermore, a mixed solvent of chloroform:methanol=1:1 (4 ml) was added to the residual pellet after the recovery of the supernatant, and a similar operation was carried out. The resulting supernatant was combined with the first supernatant and the whole was evaporated to dryness under a nitrogen stream. To the total lipid fraction was added a 0.1 N methanolic sodium hydroxide solution (2.0 ml) and the mixture was allowed to stand at 40° C. for 2 hours. Thereafter, 1 N hydrochloric acid (0.2 ml) was added thereto and the mixture was allowed to stand for 1.5 hours.
Then, the mixture was washed with n-hexane (2 ml×2) and, after the lower layer thus washed was evaporated to dryness under a nitrogen stream, the residue was desalinated by gel filtration chromatography (Sephadex LH-20 (manufactured by Amersham Pharmacia Biotech), diameter of 10 mm, height of 120 mm) using chloroform:methanol=2:1 as the eluting solvent. […] After orcinol-sulfuric acid reagent had been sprayed on the plate, it was heated at 110° C. for 5 minutes and colored spot of ganglioside GM3 was quantitatively determined by means of densitometer (a measuring wavelength of 505 nm). […]

neurocytes = details: J. Neurochem. 67: 1821-1830, 1996; cited from earlier work

CCCCCCCCCC(=O)N[C@@H](CN1CCOCC1)[C@@H](O)c1ccccc1 [L-PDMP, (1S,2S)-1-phenyl-2-decanoylamino-3-morpholino-1-propanol, reference compound]
Activity of synapse formation [1]: 100.0
Glycolipid content (Test Example 3) [2]: 100.7
effect on ganglioside biosynthesis of neurocytes (neurocytes): accelerate ganglioside biosynthesis of neurocytes
